The source of these data is patent US12612412B2, “Antiviral heterocyclic compounds” (Enanta Pharmaceuticals, Inc., priority 2021, dated 2026).

Assay [1] relates to genotype A, "Long" strain RSV. In words: RSV-A assay (CPE protection in Hep-2 cells, ATPlite readout). Format: cell-based, Human respiratory syncytial virus (HRSV). The conditions noted are these: human respiratory syncytial virus, MOI 0.1, CPE protection. A digest of the protocol:
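Hep-2 cells (8,000/well) were treated with 2-fold serial compound dilutions in duplicate and infected with RSV at MOI 0.1. After 5 days, protection from cytopathic effect was measured as cell viability by ATPlite luminescence, and EC50 values were derived.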

Assay [2] concerns HMPV clinical isolate TN/1501/A1. The assay can be described thus: HMPV antiviral assay Method-B (clinical isolate TN/1501/A1 in LLC-MK2 cells, ATP-Lite readout). The settings on record: human metapneumovirus, LLC-MK2, 144 h, hMPV WT1501 (clinical isolate TN/1501/A1), 6 days. Format: cell-based, Human metapneumovirus (HMPV). A digest of the protocol: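 EC50 derived by four-parameter logistic fit of percent cell health, measured by ATP-Lite luminescence and normalised to virus-only and uninfected-cell controls. Compounds run in duplicate from 10 μM top, 3-fold, 10 points. Infection: LLC-MK2 cells, MOI 0.014, 2 μg/mL final TPCK-trypsin, serum-free, 6 days at 37° C.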

Setting [3] is: genotype A “Long” strain RSV, read-out: Human RSV-A (“Long”).
[4] abbreviates: RSV-A Long strain, read-out: Human RSV-A (“Long”) EC50.

SMILES strings stand for the structures. Like-named read-outs stand apart in the source and are kept apart here.

Turning to `COc1cc(C(=O)NC[C@](O)(c2cc3c(c(-c4ccc(F)c(F)c4F)n2)OC[C@]3(C)C(N)=O)C2CC2)cc2cc(Cl)c(C)nc12` [Example 526], the results for the EC50 in assay [1] (setting [3]) and in assay [2] were less than 200 nM and less than 500 nM, respectively.

As for `COc1cc(C(=O)NC[C@](O)(c2nc(-c3ccc4c(c3)OC(F)(F)O4)c3c(c2F)[C@@](C)(C(N)=O)CO3)C2CC2)cc2cn(C3(F)CC3)nc12` [Example 859], the values for the EC50 in assay [1] (setting [4]) and in assay [2] were less than 200 nM and less than 500 nM, respectively.

On to `COc1cc(C(=O)NC[C@](O)(c2cc3c(c(-c4ccc(C(F)(F)F)c(Cl)c4)n2)OC[C@]3(C)C(N)=O)C(F)(F)F)cc2cn(C(F)F)nc12` [Example 580], for which the EC50 was less than 200 nM in assay [1] (setting [3]) and more than 500 nM in assay [2].

For the compound `COc1cc(C(=O)NC[C@](O)(c2cc3c(c(-c4cc(Cl)c(F)cc4F)n2)OC[C@]3(C)C(N)=O)C2(F)CC2)cc2cn(C3CC3)nc12` [Example 758], the EC50 in assay [1] (setting [3]) was less than 200 nM; in assay [2], less than 500 nM.

For the compound `COc1ccc(C(=O)NC[C@](O)(c2cc3c(c(-c4ccc(F)cc4)n2)OC[C@]3(C)C(N)=O)C(F)(F)F)n2cc(C3CC3)nc12` [Example 695], the EC50 was less than 200 nM in assay [1] (setting [3]) and more than 500 nM in assay [2].

For the compound `Cc1cnc2c(OC(F)F)cc(C(=O)NC[C@](O)(c3cc4c(c(-c5ccc(F)c(F)c5F)n3)OC[C@]4(C)C(N)=O)C(F)(F)F)cc2c1` [Example 523], the EC50 is less than 200 nM in assay [1] (setting [3]) and less than 500 nM in assay [2].

Take `C[C@]1(C(N)=O)COc2c1cc([C@@](O)(CNC(=O)c1cc(F)c3nc(N)sc3c1)C1CC1)nc2-c1ccc2c(c1)OC(F)(F)O2` [Example 827]: the figures for the EC50 in assay [1] (setting [4]) and in assay [2] were less than 200 nM and less than 500 nM, respectively.

In the case of `COc1cc(C(=O)NC[C@](O)(c2cc3c(c(-c4ccc(F)cc4)n2)OC[C@]3(C)C(N)=O)C2(F)CC2)cc2cc(Cl)c(C)nc12` [Example 707], the values for the EC50 in assay [1] (setting [3]) and in assay [2] were less than 200 nM and less than 500 nM, respectively.

With `COc1cc(C(=O)NC[C@](O)(c2cc3c(c(-c4ccc(F)c(F)c4Cl)n2)OC[C@]3(C)C(N)=O)C2CC2)cc2cc(Cl)c(C)nc12` [Example 565], the EC50 in assay [1] (setting [3]) was less than 200 nM; in assay [2], less than 500 nM.

For the compound `COc1cc(C(=O)NC[C@](O)(c2cc3c(c(-c4ccc(F)cc4Cl)n2)OC[C@]3(C)C(N)=O)C2CC2)cc2cn(C(F)F)nc12` [Example 656], the EC50 in assay [1] (setting [3]) was less than 200 nM; in assay [2], less than 500 nM.

As for `Cc1cnc2c(Cl)cc(C(=O)NC[C@](O)(c3cc4c(c(-c5ccc(F)c(F)c5F)n3)OC[C@]4(C)C(N)=O)C3CC3)cc2c1` [Example 531], the EC50 in assay [1] (setting [3]) is less than 200 nM; in assay [2] it was less than 500 nM.

Turning to `Cc1cnc2c(Cl)cc(C(=O)NC[C@](O)(c3cc4c(c(-c5ccc(Cl)c(F)c5F)n3)OC[C@]4(C)C(N)=O)C3CC3)cc2c1` [Example 688], the figures for the EC50 in assay [1] (setting [3]) and in assay [2] were less than 200 nM and less than 500 nM, respectively.

For `COc1cc(C(=O)NC[C@](O)(c2cc3c(c(-c4ccc5cn(C(F)F)nc5c4)n2)OC[C@]3(C)C(N)=O)C(F)(F)F)cc2cn(C3CC3)nc12` [Example 941], the values for the EC50 in assay [1] (setting [4]) and in assay [2] were more than 200 nM and more than 500 nM, respectively.

Regarding `COc1cc(C(=O)NC[C@](O)(c2cc3c(c(-c4ccc(F)cc4)n2)OC[C@]3(C)C(N)=O)C(F)(F)F)cc2cn(C3(O)CC3)nc12` [Example 821], the figures for the EC50 in assay [1] (setting [3]) and in assay [2] were less than 200 nM and more than 500 nM, respectively.

Regarding `Cc1cnc2c(OC(F)F)cc(C(=O)NC[C@](O)(c3cc4c(c(-c5ccc(F)cc5)n3)OC[C@]4(C)C(N)=O)C3CC3)cc2c1` [Example 495], the EC50 was less than 200 nM in assay [1] (setting [3]) and less than 500 nM in assay [2].

Consider `COc1cc(C(=O)NC[C@](O)(c2nc(-c3ccc4c(c3)OC(F)(F)O4)c3c(c2F)[C@@](C)(C(N)=O)CO3)C2CC2)cc2cc(Cl)c(C)nc12` [Example 861], for which the figures for the EC50 in assay [1] (setting [4]) and in assay [2] were less than 200 nM and less than 500 nM, respectively.

`COc1cc(C(=O)NC[C@](O)(c2cc3c(c(-c4ccc(F)c(F)c4Cl)n2)OC[C@]3(C)C(N)=O)C2CC2)cc2cc(Br)c(C)nc12` [Example 1184]: the EC50 in assay [1] (setting [4]) was less than 200 nM; in assay [2], less than 500 nM.

Consider `COc1cc(C(=O)NC[C@](O)(c2cc3c(c(-c4cc(Cl)c(F)cc4F)n2)OC[C@]3(C)C(N)=O)C2CC2)cc2cn(C3(F)CC3)nc12` [Example 663], for which the EC50 in assay [1] (setting [3]) is less than 200 nM; in assay [2] it was less than 500 nM.

For the compound `COc1cc(C(=O)NC[C@](O)(c2cc3c(c(-c4ccc(F)c(F)c4Cl)n2)OC[C@]3(C)C(N)=O)C(F)(F)F)cc2cn(C3(F)CC3)nc12` [Example 775], the results for the EC50 in assay [1] (setting [3]) and in assay [2] were less than 200 nM and less than 500 nM, respectively.

As to `COc1cc(C(=O)NC[C@](O)(c2cc3c(c(-c4ccc(F)cc4)n2)OC[C@]3(C)C(N)=O)C2CC2)cc2cc(C(F)F)nnc12` [Example 1128], the EC50 in assay [1] (setting [4]) is less than 200 nM; in assay [2] it was more than 500 nM.

As to `COc1cc(C(=O)NC[C@](O)(c2cc3c(c(-c4ccc(-c5ccccc5)cc4)n2)OC[C@]3(C)C(N)=O)C(F)(F)F)cc2cn(C3CC3)nc12` [Example 1249], the EC50 in assay [1] (setting [4]) is more than 200 nM; in assay [2], more than 500 nM.

As to `C[C@]1(C(N)=O)COc2c1cc([C@@](O)(CNC(=O)c1cc(Cl)c3nn(C4CC4)cc3c1)C1CC1)nc2-c1ccc(F)c(Br)c1F` [Example 800], the EC50 is less than 200 nM in assay [1] (setting [3]) and less than 500 nM in assay [2].

As for `NC(=O)[C@]1(CF)COc2c1cc([C@@](O)(CNC(=O)c1cc(OC3CC3)c3ncccc3c1)C1CC1)nc2-c1ccc(F)cc1` [Example 1053], the EC50 in assay [1] (setting [4]) is more than 200 nM; in assay [2], more than 500 nM.

For the compound `COc1cc(C(=O)NC[C@](O)(c2cc3c(c(-c4ccc(F)c(Cl)c4F)n2)OC[C@]3(C)C(N)=O)C2CC2)cc2cc(C(F)(F)F)cnc12` [Example 572], the figures for the EC50 in assay [1] (setting [3]) and in assay [2] were less than 200 nM and less than 500 nM, respectively.

In the case of `Cc1cnc2c(OC(F)F)cc(C(=O)NC[C@](O)(c3cc4c(c(-c5ccc(F)cc5)n3)OC[C@]4(C(N)=O)C(F)F)C(F)(F)F)cc2c1` [Example 1006], the figures for the EC50 in assay [1] (setting [4]) and in assay [2] were more than 200 nM and more than 500 nM, respectively.

In the case of `COc1cc(C(=O)NC[C@](O)(c2cc3c(c(-c4cc(Cl)c(F)cc4F)n2)OC[C@]3(C)C(N)=O)C(F)(F)F)cc2cc(Cl)c(C)nc12` [Example 620], the EC50 was less than 200 nM in assay [1] (setting [3]) and less than 500 nM in assay [2].

As for `COc1cc(C(=O)NC[C@](O)(c2cc3c(c(-c4ccc(F)cc4)n2)OC[C@]3(C)C(N)=O)C(F)(F)F)cc2cc(Cl)c(Cl)nc12` [Example 1104], the EC50 in assay [1] (setting [4]) is more than 200 nM; in assay [2], more than 500 nM.

On to `COc1cc(C(=O)NC[C@](O)(c2cc3c(c(-c4ccc(F)cc4)n2)OC[C@@]3(C(N)=O)C(F)F)C(F)(F)F)cc2cn(C3CC3)nc12` [Example 999], for which the EC50 in assay [1] (setting [4]) was less than 200 nM; in assay [2] it was less than 500 nM.

As to `Cc1nc2c(OC3CC3)cc(C(=O)NC[C@](O)(c3cc4c(c(-c5csc6c(F)cccc56)n3)OC[C@]4(C)C(N)=O)C(F)(F)F)cc2cc1Cl` [Example 603], the EC50 in assay [1] (setting [3]) was less than 200 nM; in assay [2] it was more than 500 nM.

For the compound `COc1cc(C(=O)NC[C@](O)(c2cc3c(c(-c4c(F)ccc(Cl)c4F)n2)OC[C@]3(C)C(N)=O)C2CC2)cc2cn(C3CC3)nc12` [Example 1163], the EC50 in assay [1] (setting [4]) is less than 200 nM; in assay [2], less than 500 nM.

Turning to `COc1cc(C(=O)NC[C@](O)(c2cc3c(c(-c4ccc(F)cc4)n2)OC[C@]3(C)C(N)=O)C(F)(F)F)cc2cn(C(F)(F)F)nc12` [Example 1068], the EC50 in assay [1] (setting [4]) is less than 200 nM; in assay [2], less than 500 nM.

Turning to `Cc1nc2c(Cl)cc(C(=O)NC[C@](O)(c3cc4c(c(-c5ccc(F)c(F)c5Cl)n3)OC[C@]4(C)C(N)=O)C3CC3)cc2cc1Cl` [Example 1186], the EC50 in assay [1] (setting [4]) is less than 200 nM; in assay [2], less than 500 nM.

Take `C[C@]1(C(N)=O)COc2c1cc([C@@](O)(CNC(=O)c1cc(OC3CC3)n3nc(C4CC4)cc3c1)C1CC1)nc2-c1ccc(F)c(Cl)c1` [Example 491]: the EC50 in assay [1] (setting [3]) was less than 200 nM; in assay [2] it was less than 500 nM.

Regarding `COc1cc(C(=O)NC[C@](O)(c2cc3c(c(-c4ccc5ncccc5c4)n2)OC[C@]3(C)C(N)=O)C(F)(F)F)cc2cn(C3CC3)nc12` [Example 966], the EC50 in assay [1] (setting [4]) was more than 200 nM; in assay [2] it was more than 500 nM.

As for `COc1cc(C(=O)NC[C@](O)(c2nc(-c3ccc(F)c(Cl)c3F)c3c(c2F)[C@@](C)(C(N)=O)CO3)C2CC2)cc2cn(C(F)F)nc12` [Example 1161], the EC50 in assay [1] (setting [4]) is less than 200 nM; in assay [2], less than 500 nM.

Consider `C[C@]1(C(N)=O)COc2c(-c3ccc4c(c3)OC(F)(F)O4)nc([C@@](O)(CNC(=O)c3cc(Cl)c4nn(C5CC5)cc4c3)C3CC3)c(F)c21` [Example 858], for which the figures for the EC50 in assay [1] (setting [4]) and in assay [2] were less than 200 nM and less than 500 nM, respectively.

Consider `C[C@]1(C(N)=O)COc2c1cc([C@@](O)(CNC(=O)c1cc(Cl)c3nn(C4CC4)cc3c1)C1CC1)nc2-c1cc(Cl)c(F)cc1F` [Example 668], for which the EC50 in assay [1] (setting [3]) is less than 200 nM; in assay [2] it was less than 500 nM.

Turning to `COc1cc(C(=O)NC[C@](O)(c2cc3c(c(-c4ccc(Cl)c(Cl)c4)n2)OC[C@]3(C)C(N)=O)C(F)(F)F)cc2cn(C3CC3)nc12` [Example 935], the results for the EC50 in assay [1] (setting [4]) and in assay [2] were less than 200 nM and more than 500 nM, respectively.

Consider `Cc1cnc2c(Cl)cc(C(=O)NC[C@](O)(c3cc4c(c(-c5ccc(F)c(F)c5Cl)n3)OC[C@]4(C)C(N)=O)C(F)(F)F)cc2c1` [Example 779], for which the EC50 in assay [1] (setting [3]) is less than 200 nM; in assay [2] it was less than 500 nM.

In the case of `C[C@]1(C(N)=O)COc2c1cc([C@@](O)(CNC(=O)c1cc(Cl)c3nn(C4CC4)cc3c1)C1CC1)nc2-c1ccc(Cl)c(F)c1F` [Example 686], the EC50 in assay [1] (setting [3]) is less than 200 nM; in assay [2] it was less than 500 nM.
